Earlier results, collected in patent publication US7829688B2, “Peptides of CaV2.2 that inhibit pain” (The Board of Regents of the University of Texas System, priority 2004, dated 2010).

Biological target: T1, N-type Ca2+ channels (Rattus norvegicus, UniProt Q02294, C1579L/DEL1236-1239/DEL415-415/E177G/INS1558ET)
T1 construct: host or cells: rat, in vivo (Malmberg and Yaksh, 1994, 1995)
Settings: in vivo; cited from earlier work

T1 sequence (Q02294 whole entry, looked up, stated change not applied): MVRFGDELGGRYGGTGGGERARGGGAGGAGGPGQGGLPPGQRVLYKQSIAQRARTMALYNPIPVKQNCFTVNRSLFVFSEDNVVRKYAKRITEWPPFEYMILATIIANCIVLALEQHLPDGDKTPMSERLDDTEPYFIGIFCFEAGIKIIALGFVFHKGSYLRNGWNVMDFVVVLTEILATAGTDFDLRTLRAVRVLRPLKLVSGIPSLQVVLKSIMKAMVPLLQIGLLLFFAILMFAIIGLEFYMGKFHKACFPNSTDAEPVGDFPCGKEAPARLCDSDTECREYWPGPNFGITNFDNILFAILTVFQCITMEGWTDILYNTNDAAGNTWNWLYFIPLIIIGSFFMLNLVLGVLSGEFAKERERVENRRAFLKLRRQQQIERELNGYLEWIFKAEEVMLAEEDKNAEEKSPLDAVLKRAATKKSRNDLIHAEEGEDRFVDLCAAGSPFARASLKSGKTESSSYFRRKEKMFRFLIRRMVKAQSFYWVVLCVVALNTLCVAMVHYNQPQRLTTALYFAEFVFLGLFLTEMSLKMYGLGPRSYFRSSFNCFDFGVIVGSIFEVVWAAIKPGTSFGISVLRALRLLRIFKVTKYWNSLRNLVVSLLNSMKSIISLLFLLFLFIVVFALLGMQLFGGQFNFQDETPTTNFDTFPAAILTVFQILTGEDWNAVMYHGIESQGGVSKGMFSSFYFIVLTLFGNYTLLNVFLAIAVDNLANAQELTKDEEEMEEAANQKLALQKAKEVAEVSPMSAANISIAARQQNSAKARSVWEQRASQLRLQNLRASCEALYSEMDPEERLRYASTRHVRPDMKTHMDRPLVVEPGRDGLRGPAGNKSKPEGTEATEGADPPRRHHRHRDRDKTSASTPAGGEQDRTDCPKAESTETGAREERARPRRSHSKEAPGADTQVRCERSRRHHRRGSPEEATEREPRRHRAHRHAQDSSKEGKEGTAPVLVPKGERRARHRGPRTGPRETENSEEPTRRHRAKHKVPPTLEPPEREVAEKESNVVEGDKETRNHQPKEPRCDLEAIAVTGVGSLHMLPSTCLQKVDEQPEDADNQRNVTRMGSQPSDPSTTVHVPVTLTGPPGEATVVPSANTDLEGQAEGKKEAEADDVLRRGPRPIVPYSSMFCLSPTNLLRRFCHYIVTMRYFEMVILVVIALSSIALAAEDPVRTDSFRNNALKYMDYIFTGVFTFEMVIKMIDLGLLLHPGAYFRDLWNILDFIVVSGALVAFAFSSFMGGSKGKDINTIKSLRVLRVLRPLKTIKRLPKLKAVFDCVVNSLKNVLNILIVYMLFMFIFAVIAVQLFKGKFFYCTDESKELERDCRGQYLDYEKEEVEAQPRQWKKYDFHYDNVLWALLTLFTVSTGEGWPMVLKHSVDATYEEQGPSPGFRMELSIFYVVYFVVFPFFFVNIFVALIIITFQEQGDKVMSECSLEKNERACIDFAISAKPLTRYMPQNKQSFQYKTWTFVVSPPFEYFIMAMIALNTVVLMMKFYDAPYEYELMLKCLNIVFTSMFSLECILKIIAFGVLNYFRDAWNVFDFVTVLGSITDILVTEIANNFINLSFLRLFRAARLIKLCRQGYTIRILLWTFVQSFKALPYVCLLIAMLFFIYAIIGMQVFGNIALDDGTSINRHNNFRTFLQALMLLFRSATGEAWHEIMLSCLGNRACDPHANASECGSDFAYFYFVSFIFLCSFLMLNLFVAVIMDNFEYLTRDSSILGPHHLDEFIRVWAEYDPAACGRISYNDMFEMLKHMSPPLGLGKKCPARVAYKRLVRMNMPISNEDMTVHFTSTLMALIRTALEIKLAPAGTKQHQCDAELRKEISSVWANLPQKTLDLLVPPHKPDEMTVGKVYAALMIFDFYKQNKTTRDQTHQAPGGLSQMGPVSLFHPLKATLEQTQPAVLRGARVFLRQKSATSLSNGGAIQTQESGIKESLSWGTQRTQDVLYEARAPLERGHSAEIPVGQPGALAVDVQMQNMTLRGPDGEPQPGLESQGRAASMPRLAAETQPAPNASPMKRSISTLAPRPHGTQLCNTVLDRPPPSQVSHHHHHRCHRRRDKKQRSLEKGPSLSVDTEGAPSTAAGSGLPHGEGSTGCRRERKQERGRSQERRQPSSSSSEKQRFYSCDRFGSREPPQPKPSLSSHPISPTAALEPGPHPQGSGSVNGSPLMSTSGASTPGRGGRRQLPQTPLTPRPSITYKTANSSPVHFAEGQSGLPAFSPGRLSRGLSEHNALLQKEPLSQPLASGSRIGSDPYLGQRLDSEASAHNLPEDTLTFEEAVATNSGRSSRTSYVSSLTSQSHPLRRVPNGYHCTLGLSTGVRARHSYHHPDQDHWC

In the case of `CSCC[C@@H]1NC(=O)[C@H](CC(C)C)NC(=O)[C@H](CCCNC(=N)N)NC(=O)[C@H](CO)NC(=O)[C@@H]2CSSC[C@@H]3NC(=O)[C@H](CO)NC(=O)CNC(=O)[C@H]([C@@H](C)O)NC(=O)[C@H](CSSC[C@H](N)C(=O)N[C@@H](CCCCN)C(=O)NCC(=O)N[C@@H](CCCCN)C(=O)NCC(=O)N[C@@H](C)C(=O)N[C@@H](CCCCN)C(=O)N2)NC(=O)[C@H](CSSC[C@@H](C(N)=O)NC(=O)[C@H](CCCCN)NC(=O)CNC(=O)[C@H](CO)NC(=O)[C@H](CCCNC(=N)N)NC3=O)NC(=O)[C@H](CC(=O)O)NC(=O)[C@H](Cc2ccc(O)cc2)NC1=O` [SNX-111], the “phase II formalin response” value is listed as “inhibited”.
